Measurements as given in patent US8338565B2, “Macrocyclic compounds for inhibition of tumor necrosis factor alpha” (Ensemble Therapeutics Corporation, priority 2008, dated 2012).
pIC50: −log10 of the molar value. Numbered stars: 1 amine (or outer) side, 2 acyl side, 3 side chain; on linkers, the order of the positions; unused ones are H or OH. Bridge positions count the residues as written; N and C are the ends. Square brackets hold non-standard residues; d marks the D form. Peptide text beside a SMILES is read from it. Tartaroyl(2R,3R-(OAc)2) = CC(=O)O[C@@H](C(=O)[*:1])[C@@H](OC(C)=O)C(=O)[*:2]; Phe(2,4-Cl2) = N[C@@H](Cc1ccc(Cl)cc1Cl)C(=O)O; Bip = N[C@@H](Cc1ccc(-c2ccccc2)cc1)C(=O)O; dPhe(4-NH2) = Nc1ccc(C[C@@H](N)C(=O)O)cc1; Phe(4-Br) = N[C@@H](Cc1ccc(Br)cc1)C(=O)O; Phe(4-NH2) = Nc1ccc(C[C@H](N)C(=O)O)cc1; dAla(2-furyl) = N[C@H](Cc1ccco1)C(=O)O; d(hPhe) = N[C@H](CCc1ccccc1)C(=O)O; 2Pal = N[C@@H](Cc1ccccn1)C(=O)O; d2Thi = N[C@H](Cc1cccs1)C(=O)O; Suc = O=C(CCC(=O)[*:2])[*:1]

Each compound was assayed against T1, TNFα / TNFα receptor (TNFα R1/Fc) (Homo sapiens, UniProt P01375) (assay: Inhibition of binding of TNFα to the TNFα receptor (plate ELISA competition)). Details: Table 2; read-out: Activity (IC50, inhibition of TNFα binding to TNFα R1/Fc).
T1 construct: purchased R&D Systems
T1 sequence (P01375 77-233 limits assumed, species assumed): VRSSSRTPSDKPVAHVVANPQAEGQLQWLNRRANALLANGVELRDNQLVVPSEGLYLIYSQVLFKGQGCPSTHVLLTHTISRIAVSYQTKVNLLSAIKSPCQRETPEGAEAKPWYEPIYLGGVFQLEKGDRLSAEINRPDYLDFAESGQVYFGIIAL
Procedure, shortened: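 Compound dilutions were preincubated 30 min at RT with 8.33 nM TNFα R1/Fc in PBST with 2% DMSO, then added to wells coated with 15 nM TNFα for 30 min. Bound receptor was detected with HRP anti-human Fc and TMB, read as A450.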

Row | pIC50 | SMILES
1 | 4.52 to 5.00 | O=C(O)CN(Cc1ccccc1)C(=O)[C@@H]1Cc2ccc(cc2)OCC(=O)N[C@@H](Cc2cccs2)C(=O)N[C@H](Cc2ccc(-c3ccccc3)cc2)C(=O)N[C@@H](Cc2ccccc2)C(=O)N1 [Compound 392]
2 | > 5.00 | O=C(O)CNC(=O)[C@@H]1Cc2ccc(cc2)OCC(=O)N[C@@H](Cc2cccs2)C(=O)N[C@@H](Cc2ccc(-c3ccccc3)cc2)C(=O)N[C@@H](Cc2ccccc2)C(=O)N1 [Compound 329]
3 | > 5.00 | CN(CCS(=O)(=O)O)C(=O)[C@@H]1Cc2ccc(cc2)OCC(=O)N[C@@H](Cc2cccs2)C(=O)N[C@H](Cc2ccc(-c3ccccc3)cc2)C(=O)N[C@@H](CCc2ccccc2)C(=O)N1 [Compound 605]
4 | > 5.00 | COc1ccc(C[C@@H]2NC(=O)COc3ccc(cc3)C[C@@H](C(=O)O)NC(=O)[C@H](CCc3ccccc3)NC(=O)[C@@H](Cc3ccc(-c4ccccc4)cc3)NC2=O)cc1 [Compound 681]
5 | 4.52 to 5.00 | O=C(O)C[C@H](Cc1ccccc1)NC(=O)[C@@H]1Cc2ccc(cc2)OCC(=O)N[C@@H](Cc2cccs2)C(=O)N[C@H](Cc2ccc(-c3ccccc3)cc2)C(=O)N[C@@H](CCc2ccccc2)C(=O)N1 [Compound 485]

The next lines start with the compound.

Row | SMILES | pIC50
6 | O=C1CCC(=O)N[C@H](CCc2ccccc2)C(=O)N[C@@H](Cc2ccc(Br)cc2)C(=O)N[C@H](Cc2ccccc2)C(=O)N[C@@H](C(=O)N[C@@H](Cc2ccccc2)C(=O)O)Cc2ccc(cc2)N1 [Compound 440] ([d(hPhe)][Phe(4-Br)][dF][dPhe(4-NH2)]F-OH; linker N-4 via Suc) | 4.52 to 5.00
7 | CC(=O)O[C@H]1C(=O)Nc2ccc(cc2)C[C@H](C(=O)O)NC(=O)[C@@H](Cc2ccco2)NC(=O)[C@H](Cc2ccc(Br)cc2)NC(=O)[C@@H](Cc2ccccc2)NC(=O)[C@@H]1OC(C)=O [Compound 160] ([dF][Phe(4-Br)][dAla(2-furyl)][dPhe(4-NH2)]-OH; linker N-4 via Tartaroyl(2R,3R-(OAc)2)) | 4.00 to 4.52
8 | N[C@@H]1CC(=O)Nc2ccc(cc2)C[C@@H](C(=O)O)NC(=O)[C@@H](Cc2ccccc2)NC(=O)[C@H](Cc2ccc(-c3ccccc3)cc2)NC(=O)[C@@H](Cc2cccs2)NC1=O [Compound 372] (H-[dD][d2Thi][Bip][dF][Phe(4-NH2)]-OH; lactam 1-5) | < 4.00
9 | CC(=O)O[C@H]1C(=O)Nc2ccc(cc2)C[C@H](C(=O)O)NC(=O)[C@@H](CCc2ccccc2)NC(=O)[C@H](Cc2ccc(Cl)cc2Cl)NC(=O)[C@@H](Cc2ccccc2)NC(=O)[C@@H]1OC(C)=O [Compound 220] ([dF][Phe(2,4-Cl2)][d(hPhe)][dPhe(4-NH2)]-OH; linker N-4 via Tartaroyl(2R,3R-(OAc)2)) | 4.52 to 5.00
10 | COc1ccc(C[C@@H]2NC(=O)[C@@H](Cc3cccs3)NC(=O)COc3ccc(cc3)C[C@@H](C(=O)O)NC(=O)[C@@H](CCc3ccccc3)NC2=O)cc1OC [Compound 540] | < 4.00
11 | O=C(O)[C@H](Cc1ccccc1)NC(=O)[C@H]1Cc2ccc(cc2)NC(=O)[C@H](O)[C@@H](O)C(=O)N[C@@H](Cc2cccs2)C(=O)N[C@H](Cc2ccc(Br)cc2)C(=O)N[C@@H](CCc2ccccc2)C(=O)N1 [Compound 436] | > 5.00
12 | O=C1CCC(=O)N[C@H](Cc2cccs2)C(=O)N[C@@H](Cc2ccc(-c3ccccc3)cc2)C(=O)N[C@@H](Cc2ccccn2)C(=O)N[C@H](C(=O)O)Cc2ccc(cc2)N1 [Compound 53] ([d2Thi][Bip][2Pal][Phe(4-NH2)]-OH; linker N-4 via Suc) | < 4.00
13 | CC(=O)O[C@H]1C(=O)Nc2ccc(cc2)C[C@H](C(=O)O)NC(=O)[C@@H](Cc2ccco2)NC(=O)[C@H](Cc2ccc(Br)cc2)NC(=O)[C@@H](Cc2cccs2)NC(=O)[C@@H]1OC(C)=O [Compound 154] ([d2Thi][Phe(4-Br)][dAla(2-furyl)][dPhe(4-NH2)]-OH; linker N-4 via Tartaroyl(2R,3R-(OAc)2)) | < 4.00
14 | NC(=O)C[C@@H]1NC(=O)COc2ccc(cc2)C[C@@H](C(=O)O)NC(=O)[C@H](Cc2ccccc2)NC(=O)[C@@H](Cc2ccc(-c3ccccc3)cc2)NC1=O [Compound 488] | < 4.00
